In patent US20250051409A1, “MODULATORS OF PHOSPHATIDYLSERlNE DECARBOXYLASE AND USE THEREOF” (THE NATIONAL INSTITUTE FOR BIOTECHNOLOGY IN THE NEGEV LTD., priority 2021, published 2025):
Each block holds one compound with its values, some of them ahead of it. Square brackets hold non-standard residues; d marks the D form. Ends that are not written are not given here. Peptide text beside a SMILES is read from it. Dmt = Cc1cc(O)cc(C)c1C[C@H](N)C(=O)O; Orn = NCCC[C@H](N)C(=O)O

Experiments:
SMAC = assay: IF staining of peptide-treated tumor sections, SMAC; format: in vivo, nude mice; details: peptide-treated A549 tumors
Procedure: (§1) Sections of paraffin-embedded control and peptide treated tumors were IF stained using specific antibodies and subjected to quantification. Relative staining intensity for the nuclear proliferation marker, Ki-67 (and its (A), SMAC (B) and NF-kB (C). Results represent the means±SEM (n=3) ***P≤0.001. (G) Sections from the indicated tumors were stained with H & E, with some areas were magnified.
(§2) In order to reduce non-specific binding, sections were incubated in 10% normal goat serum for 2 h, then incubated with primary antibodies (Table 1) overnight at 4° C. […] Sections were washed with water, counterstained with hematoxylin, and mounted with Vectashield mounting medium (Vector Laboratories, Burlingame, CA).

NF-κB = assay: IF staining of peptide-treated tumor sections, NF-κB; format: in vivo, nude mice; details: peptide-treated A549 tumors, immunofluorescence
Procedure: as §1, §2

[1] = target: T1, phosphatidylserine decarboxylase (PSD) (Homo sapiens, UniProt Q9UG56); assay: MST binding of synthetic peptides to fluorescently-labelled purified PSD; details: PSD 0.25 μM, peptide 1-10 μM, 30 min at 37° C.
T1 construct: Purified recombinant protein (full length) of human phosphatidylserine decarboxylase (PSD); His tag (N); purchased Acris-OriGene; host or cells: E. coli
T1 sequence (Q9UG56 53-409): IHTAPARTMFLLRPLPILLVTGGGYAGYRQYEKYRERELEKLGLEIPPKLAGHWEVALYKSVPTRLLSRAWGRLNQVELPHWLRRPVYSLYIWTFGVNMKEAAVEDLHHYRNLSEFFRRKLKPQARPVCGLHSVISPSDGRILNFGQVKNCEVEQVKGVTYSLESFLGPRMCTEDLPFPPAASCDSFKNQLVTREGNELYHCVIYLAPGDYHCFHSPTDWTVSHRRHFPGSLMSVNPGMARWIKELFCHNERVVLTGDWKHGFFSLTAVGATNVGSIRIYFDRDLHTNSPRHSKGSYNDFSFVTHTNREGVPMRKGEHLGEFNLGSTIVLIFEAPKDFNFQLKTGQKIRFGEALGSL

[2] = target: T1, phosphatidylserine decarboxylase (PSD); assay: Peptide array blotted with PSD preincubated with peptide; format: binding; details: PSD 0.15 μM, peptide 20 μM
Procedure: (A) Schematic presentation of peptide array and detection of their interaction with SMAC. (B) Glass-bound peptide array consisting of overlapping peptides derived from […] SMAC-interacting proteins were incubated overnight with purified SMAC (0.3 μM) and then blotted with anti-SMAC antibodies (1:1000), followed by incubation with HRP-conjugated anti-mouse IgG and detection using a chemiluminescence kit. Dark spots represent binding of SMAC to peptides derived from SMAC-interacting proteins. (C) SMAC (0.3 μM) was incubated with purified PSD (0.4 μM) and blotted as in (B). The peptide spots where PSD prevented interaction with SMAC are circled. (D) Schematic presentation of peptide array and detection of their interaction with PSD. (E) Peptide array was blotted with purified PSD (0.15 μM) and then with anti-PSD antibodies as in (B). […]
Customized 768-peptide sequences derived from 11 SMAC-interacting proteins produced by INTAVIS Peptide Services (GmbH & Co. KG, Tubingen, Germany) were arrayed on a glass slide. […] Following extensive slide washing with Tris-buffered saline containing 0.05% Tween-20, SMAC or PSD binding was detected using anti-SMAC or anti-PSD antibodies and HRP-conjugated anti-rabbit or anti-mouse IgG as a secondary antibody. […]

A-549 cells = assay: Cell death on DSB-3 staining; format: cell-based, human; details: data not shown
Procedure: A549 and A549-SMAC-KO cells were seeded on sterile cover slips in 24-well cell culture plates (75,000 cells/well) and allowed to adhere for 24 h. MitoTracker® (250 nM in DMEM+10% FBS) was added, and plates were incubated in a CO2 incubator for 30 min at 37° C. Cells were washed with PBS and incubated with DSB3 (10 μM in reaction buffer; 40 mM NaCl, 1 mM KPO4, pH 7.4) in a C02 incubator for 2 h. Cells were washed with PBS, fixed with 4% PFA for 20 min at room temperature, washed with PBS, and stained with DAPI for 20 min at room temperature. Cover slips were washed with PBS and mounted with Vectashield, and imaging was done using confocal microscopy (Olympus 1X81).

[3] = test system: A549 lung cancer tumor xenograft; assay: A549 xenograft tumor growth under si-hSMAC-A; format: in vivo, athymic nude mice
Excerpt: (§3) Treatment was initiated when the average tumor volume in each group reached ˜50 mm^3. Results are presented as the mean tumor volume±SEM. […] Scale bars represent 50, 25 or 15 μm as indicated. […] Results are the means±SEM.
Male athymic nude mice (6-8 weeks old) were obtained from Envigo and were kept in Ben-Gurion University (Israel) animal facility in temperature-controlled rooms and provided with water and food pellets ad libitum. Lung cancer A549 (3×10^6) cells were implanted subcutaneously on the dorsal flanks. Tumor growth was recorded using digital calipers, and volumes were calculated using formula […] (L=length; W=width). Mice were divided randomly into three groups once the average tumor volume reached ˜80 mm^3, and were treated subcutaneously with si-NT (group 1) or si-hSMAC (group 2-350 nM group 3-700 nM final concentration) mixed with JetPEI reagent three times a week. Mice were sacrificed at the end of experiment, and the tumors were excised and processed for immunohistochemistry or frozen in liquid nitrogen for immunoblotting and RNA isolation. All procedures involving mice were approved by the Institutional Animal Care and Use Committee.

SMAC/Diablo = SMAC/Diablo level in si-hSMAC-A treated tumors (immunoblot, IHC); format: in vivo, athymic nude mice; details: relative to si-NT-TTs
Procedure: as §3, §2
Cells were harvested and washed twice with ice-cold PBS, and the pellets were lysed on ice for 30 min in a lysis buffer (50 mM Tris-HCl, pH 7.5, 150 mM NaCl, 1 mM EDTA, 1.5 mM MgCl2, 10% glycerol, 1% Triton X-100), freshly supplemented with a protease inhibitor cocktail (Calbiochem), incubated on ice for 20 min and centrifuged thereafter (10 min, 12000 g). The protein concentration of the supernatant was determined and […] were stored at −80° C. until used for gel electrophoresis and immunoblotting. Protein samples (10-20 μg) were subjected to SDS-PAGE and immunoblotting, using the selected primary antibodies, followed by incubation with HRP-conjugated secondary antibodies. HRP activity was determined using enhanced chemiluminescent substrate (Pierce Chemical, Rockford, IL). Band intensity was quantified using FUSION-FX (Vilber Lourmat, France).

Ki-67 = Ki-67 IHC in si-hSMAC-A treated tumors; format: in vivo, athymic nude mice
Procedure: as §3, §2

[4] = test system: A549 lung cancer tumor xenograft; assay: TUNEL staining of si-hSMAC-A treated tumors; format: in vivo, athymic nude mice; details: data not shown
[5] = test system: total phospholipids (PLs), PC, and PE; assay: PL, PC and PE levels in si-hSMAC-A treated tumors; format: in vivo, athymic nude mice; details: relative to si-NT-TTs

Procedure for A549 cell xenografts: A549 cells were S.C. inoculated into female nude mice (7×10^6 cells/mouse). Tumors sizes were measured (using a digital caliper) and volumes were calculated. When tumors volumes reached 60-100 mm3 (day 12), the mice were divided into 2 groups and xenografts were untreated (●) or treated with HtrA2/Omi-derived D-amino acid peptide targeted to the mitochondria (D-HTRA2-M, o). The tumors were injected 3 times a week to a final concentration of 50 μM. […] Tumors of A549 cell xenografts were dissected, photographed (B) and weighted (C). […] Results represent the means±SEM (n=8), **P≤0.01, ***P≤0.001.
A549 cells were inoculated subcutaneously into female nude mice (7×10^6 cells/mouse). Tumors sizes were measured (using a digital caliper) and volumes were calculated. When tumors volumes reached 60-100 mm3 (day 12), the mice were divided into 2 groups (control and treatment) and in the treatment group xenografts were treated with HtrA2/Omi-derived D-amino acid peptide (SEQ ID NO:35) targeted to the mitochondria. The tumors were injected 3 times a week to a final concentration of 50 μM or the peptide was administered by intravenous injection 2 times a week to a final concentration of 20 mg/kg. Tumors of A549 cell xenografts were dissected, photographed and weighted.

Compound: Cc1cc(O)cc(C)c1C[C@H](NC(=O)[C@@H](CCCNC(=N)N)NC(=O)[C@@H](CC(C)C)NC(=O)[C@@H](CCCNC(=N)N)NC(=O)[C@@H](C)NC(=O)[C@@H](Cc1c[nH]c2ccccc12)NC(=O)[C@@H](CC(C)C)NC(=O)[C@@H](CO)NC(=O)[C@H]1CCCN1C(=O)[C@H](NC(=O)CNC(=O)[C@@H](Cc1ccc(O)cc1)NC(=O)[C@H](NC(=O)[C@H](NC(=O)[C@@H](CCCNC(=N)N)NC(=O)[C@@H](C)NC(=O)[C@@H](CCCNC(=N)N)NC(=O)[C@H]1CCCN1C(=O)[C@@H](CC(=O)O)NC(=O)[C@@H](CO)NC(=O)[C@H](NC(=O)CNC(=O)[C@@H](CO)NC(=O)[C@H](NC(=O)[C@@H](CC(C)C)NC(=O)[C@@H](CC(C)C)NC(=O)[C@@H](C)N)[C@H](C)O)[C@H](C)O)C(C)C)[C@H](C)O)[C@H](C)O)C(=O)N[C@@H](CCCN)C(=O)N[C@@H](Cc1ccccc1)C(N)=O [1C11-HTRA2-All-D-Mito] (H-[dA][dL][dL][dT][dS]G[dT][dS][dD][dP][dR][dA][dR][dV][dT][dY]G[dT][dP][dS][dL][dW][dA][dR][dL][dR][Dmt][Orn]F-NH2; N-terminus and C-terminus assumed)
decrease in expression of SMAC in tumors (SMAC): 80% | decrease in NF-κB expression in tumors (NF-κB): ~90% | tumor growth (A549 cell xenografts; intravenously, 20 mg/kg): inhibits tumor growth | decrease of tumor weight (A549 cell xenografts; intravenously, 20 mg/kg, 2 times a week): 50% | inhibition of tumor growth (A549 cell xenografts; mouse, in vivo, iv): 50%

Kd [1]: 3 µM
Compound: ALLTSGTSDPRARVTYGTPSLWARL [1C11]
PSD interaction with array peptides after pre-incubation of PSD with the peptide [2]: eliminate PSD interaction with most peptides

Compound: Distyrylbenzene-bis-aldehyde [DSB-3]
cell death (A-549 cells): induces no cell death

Compound: si-hSMAC-A: Human SMAC/Diablo-specific siRNA, sense SEQ ID NO:33 and anti-sense SEQ ID NO:34 (sense AAGCGGUGUUUCUCAGAATTGTT; antisense AACAAUUCUGAGAAACCCGCTT; chemistry not given here)
tumor volume reduction relative to si-NT-treated tumors ([3]; si-hSMAC-A at 350 nM): 50% | tumor volume reduction relative to si-NT-treated tumors ([3]; si-hSMAC-A at 700 nM): 85% | decrease of SMAC/Diablo level in treated tumors (SMAC/Diablo): 75% | expression of Ki-67 in treated tumors (Ki-67): highly reduced | cell death in treated tumors [4]: No cell death was detected | decrease of PC in treated tumors [5]: 65% | decrease of PLs in treated tumors [5]: 50% | increase of PE in treated tumors [5]: 200%
